Experimental data as given in PubChem BioAssay (NCI).
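Interpolation was linear, between the two tested concentrations surrounding the appropriate level; five concentrations were tested over 48 hours in 96-well plates. Abbreviation: GI50, concentration required for 50% inhibition of growth. The concentration for full growth arrest is given as TGI.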

Key:
Assay in all cases: DTP human tumour cell line panel, 48 h; in the data active means GI50 below about 0.43 µM; inactive means the rest
786-0 renal = tested on: 786-0 renal
A498 renal = tested on: A498 renal
A549 NSCLC = tested on: A549 NSCLC
ACHN renal = tested on: ACHN renal
BT-549 breast = tested on: BT-549 breast
CAKI-1 renal = tested on: CAKI-1 renal
CCRF-CEM leukemia = tested on: CCRF-CEM leukemia
COLO 205 colon = tested on: COLO 205 colon
DU-145 prostate = tested on: DU-145 prostate
EKVX NSCLC = tested on: EKVX NSCLC
HCC-2998 colon = tested on: HCC-2998 colon
HCT-116 colon = tested on: HCT-116 colon
HCT-15 colon = tested on: HCT-15 colon
HL-60(TB) leukemia = tested on: HL-60(TB) leukemia
HOP-62 NSCLC = tested on: HOP-62 NSCLC
HOP-92 NSCLC = tested on: HOP-92 NSCLC
HS 578T breast = tested on: HS 578T breast
HT29 colon = tested on: HT29 colon
IGROV1 ovarian = tested on: IGROV1 ovarian
K-562 leukemia = tested on: K-562 leukemia
KM12 colon = tested on: KM12 colon
LOX IMVI melanoma = tested on: LOX IMVI melanoma
M14 melanoma = tested on: M14 melanoma
MALME-3M melanoma = tested on: MALME-3M melanoma
MCF7 breast = tested on: MCF7 breast
MDA-MB-231 breast = tested on: MDA-MB-231 breast
MDA-MB-435 = tested on: MDA-MB-435
MDA-MB-468 breast = tested on: MDA-MB-468 breast
MOLT-4 leukemia = tested on: MOLT-4 leukemia
NCI-H226 lung = tested on: NCI-H226 lung
NCI-H23 lung = tested on: NCI-H23 lung
NCI-H460 lung = tested on: NCI-H460 lung
NCI-H522 lung = tested on: NCI-H522 lung
NCI/ADR-RES ovarian = tested on: NCI/ADR-RES ovarian
OVCAR-3 ovarian = tested on: OVCAR-3 ovarian
OVCAR-4 ovarian = tested on: OVCAR-4 ovarian
OVCAR-5 ovarian = tested on: OVCAR-5 ovarian
OVCAR-8 ovarian = tested on: OVCAR-8 ovarian
PC-3 prostate = tested on: PC-3 prostate
RPMI-8226 leukemia = tested on: RPMI-8226 leukemia
RXF 393 renal = tested on: RXF 393 renal
SF-268 CNS = tested on: SF-268 CNS
SF-295 CNS = tested on: SF-295 CNS
SF-539 CNS = tested on: SF-539 CNS
SK-MEL-2 melanoma = tested on: SK-MEL-2 melanoma
SK-MEL-28 melanoma = tested on: SK-MEL-28 melanoma
SK-MEL-5 melanoma = tested on: SK-MEL-5 melanoma
SK-OV-3 ovarian = tested on: SK-OV-3 ovarian
SN12C renal = tested on: SN12C renal
SNB-19 CNS = tested on: SNB-19 CNS
SNB-75 CNS = tested on: SNB-75 CNS
SR leukemia = tested on: SR leukemia
SW-620 colon = tested on: SW-620 colon
T-47D breast = tested on: T-47D breast
TK-10 renal = tested on: TK-10 renal
U251 CNS = tested on: U251 CNS
UACC-257 melanoma = tested on: UACC-257 melanoma
UACC-62 melanoma = tested on: UACC-62 melanoma
UO-31 renal = tested on: UO-31 renal

CC12OOC(C)(OO1)C2CCC(=O)NCCCNc1ccnc2cc(Cl)ccc12 (stereo not drawn)
5.59 µM: TGI (NCI-H522 lung)
16.2 µM: TGI (MDA-MB-435)
5.83 µM: TGI (OVCAR-3 ovarian)
13.4 µM: TGI (T-47D breast)
7.4 µM: TGI (M14 melanoma)
6.22 µM: TGI (ACHN renal)
7.99 µM: TGI (EKVX NSCLC)
6.52 µM: TGI (DU-145 prostate)
10.1 µM: TGI (K-562 leukemia)
> 20 µM: TGI (A498 renal) | TGI (BT-549 breast) | TGI (HCC-2998 colon) | TGI (HOP-62 NSCLC) | TGI (HS 578T breast) | TGI (IGROV1 ovarian) | TGI (KM12 colon) | TGI (MCF7 breast) | TGI (MDA-MB-231 breast) | TGI (MOLT-4 leukemia) | TGI (NCI-H226 lung) | TGI (NCI-H23 lung) | TGI (NCI-H460 lung) | TGI (NCI/ADR-RES ovarian) | TGI (OVCAR-5 ovarian) | TGI (OVCAR-8 ovarian) | TGI (PC-3 prostate) | TGI (RPMI-8226 leukemia) | TGI (SF-268 CNS) | TGI (SF-295 CNS) | TGI (SF-539 CNS) | TGI (SK-MEL-2 melanoma) | TGI (SK-MEL-28 melanoma) | TGI (SK-MEL-5 melanoma) | TGI (SK-OV-3 ovarian) | TGI (SN12C renal) | TGI (SNB-19 CNS) | TGI (SNB-75 CNS) | TGI (SW-620 colon) | TGI (U251 CNS) | TGI (UACC-257 melanoma) | TGI (UACC-62 melanoma)
6.07 µM: TGI (CAKI-1 renal)
7.47 µM: TGI (HT29 colon)
9.56 µM: TGI (RXF 393 renal)
8.63 µM: TGI (HL-60(TB) leukemia)
7.16 µM: TGI (786-0 renal)
17.6 µM: TGI (HCT-116 colon)
14.1 µM: TGI (CCRF-CEM leukemia)
6.87 µM: TGI (HOP-92 NSCLC)
6.31 µM: TGI (MALME-3M melanoma)
9.86 µM: TGI (A549 NSCLC)
5.85 µM: TGI (LOX IMVI melanoma)
5.78 µM: TGI (UO-31 renal)
8.71 µM: TGI (SR leukemia)
14.5 µM: TGI (TK-10 renal)
8.97 µM: TGI (MDA-MB-468 breast)
6.64 µM: TGI (OVCAR-4 ovarian)
9.17 µM: TGI (HCT-15 colon)
inactive: GI50 (786-0 renal) 3.5 µM | GI50 (A498 renal) > 20 µM | GI50 (A549 NSCLC) 4.22 µM | GI50 (ACHN renal) 3.45 µM | GI50 (BT-549 breast) > 20 µM | GI50 (CAKI-1 renal) 3.31 µM | GI50 (CCRF-CEM leukemia) 4.51 µM | GI50 (COLO 205 colon) 3.69 µM | GI50 (DU-145 prostate) 3.58 µM | GI50 (EKVX NSCLC) 3.8 µM | GI50 (HCC-2998 colon) > 20 µM | GI50 (HCT-116 colon) 5.56 µM | GI50 (HCT-15 colon) 4.03 µM | GI50 (HL-60(TB) leukemia) 3.6 µM | GI50 (HOP-62 NSCLC) > 20 µM | GI50 (HOP-92 NSCLC) 3.34 µM | GI50 (HS 578T breast) > 20 µM | GI50 (HT29 colon) 3.86 µM | GI50 (IGROV1 ovarian) 7.07 µM | GI50 (K-562 leukemia) 4.28 µM | GI50 (KM12 colon) > 20 µM | GI50 (LOX IMVI melanoma) 3.06 µM | GI50 (M14 melanoma) 3.66 µM | GI50 (MALME-3M melanoma) 3.35 µM | GI50 (MCF7 breast) 8.11 µM | GI50 (MDA-MB-231 breast) 8.26 µM | GI50 (MDA-MB-435) 4.84 µM | GI50 (MDA-MB-468 breast) 3.6 µM | GI50 (MOLT-4 leukemia) 8.6 µM | GI50 (NCI-H226 lung) > 20 µM | GI50 (NCI-H23 lung) > 20 µM | GI50 (NCI-H460 lung) 12.7 µM | GI50 (NCI-H522 lung) 2.66 µM | GI50 (NCI/ADR-RES ovarian) > 20 µM | GI50 (OVCAR-3 ovarian) 2.97 µM | GI50 (OVCAR-4 ovarian) 3.19 µM | GI50 (OVCAR-5 ovarian) > 20 µM | GI50 (OVCAR-8 ovarian) > 20 µM | GI50 (PC-3 prostate) > 20 µM | GI50 (RPMI-8226 leukemia) 9.51 µM | GI50 (RXF 393 renal) 3.69 µM | GI50 (SF-268 CNS) > 20 µM | GI50 (SF-295 CNS) > 20 µM | GI50 (SF-539 CNS) 11.3 µM | GI50 (SK-MEL-2 melanoma) > 20 µM | GI50 (SK-MEL-28 melanoma) > 20 µM | GI50 (SK-MEL-5 melanoma) > 20 µM | GI50 (SK-OV-3 ovarian) > 20 µM | GI50 (SN12C renal) > 20 µM | GI50 (SNB-19 CNS) > 20 µM | GI50 (SNB-75 CNS) > 20 µM | GI50 (SR leukemia) 3.88 µM | GI50 (SW-620 colon) 4.3 µM | GI50 (T-47D breast) 4.35 µM | GI50 (TK-10 renal) 4.62 µM | GI50 (U251 CNS) > 20 µM | GI50 (UACC-257 melanoma) 9.4 µM | GI50 (UACC-62 melanoma) 12.6 µM | GI50 (UO-31 renal) 3.1 µM
7.68 µM: TGI (COLO 205 colon)
